Where a name gives a salt, the structure may show the parent alone.
Experiments:
[1] = low dose CO (100-125 ppm); patients with idiopathic pulmonary fibrosis or COPD; cited from earlier work
HO-1 [2] = molecular target: T1, HO-1 (Mus musculus, UniProt P14901); assay: Cytokines in supernatants of CpG-stimulated BMDMs treated with ZnPP and/or CORM2 (ELISA); format: cell-based
T1 construct: endogenous in cells; host or cells: mouse bone marrow derived macrophages (BMDM)
T1 sequence (P14901 1-289): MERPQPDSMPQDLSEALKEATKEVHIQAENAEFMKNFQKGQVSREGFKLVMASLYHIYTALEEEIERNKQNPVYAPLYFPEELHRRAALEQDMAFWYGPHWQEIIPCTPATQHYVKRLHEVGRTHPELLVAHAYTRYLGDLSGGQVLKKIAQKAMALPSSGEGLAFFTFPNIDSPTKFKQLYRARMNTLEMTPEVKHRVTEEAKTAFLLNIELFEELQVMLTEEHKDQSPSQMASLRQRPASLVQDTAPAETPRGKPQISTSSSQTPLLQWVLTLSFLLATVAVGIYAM
Method: Bone marrow (BM) was extracted from the hind limbs of mice and filtered over a 70-μm strainer to obtain a single cell suspension, followed by RBC lysis. Bone marrow derived macrophages (BMDM) were derived by culture in M-CSF-enriched media of L929 cells. RAW264.7 cells were obtained from ATCC (Manassas, VA). Class B CpG1826 oligonucleotide was synthesized by Integrated DNA Technologies (Coralville, IA). Macrophages were treated with CpG (1 μg/ml) for 18 to 20 hours for cytokine analysis in cell supernatant, and for 0 to 2 hours for analysis of protein expression level by Western blot treated as indicated.
(§1) TLR9 activation induced cytokines from cells supernatants and serum were measured by using the ELISA kits from BD OptEIA™ (Cat nos. IL-12: 555256, IL-10: 555252, TNFα: 555268 and IL-6: 555240; Franklin Lakes, NJ).

Nrf2/HO-1 = assay: MMF induction of Nrf2 and HO-1 in macrophages of injected mice (Western blot); format: in vivo, mouse
Method: MAS was induced by repeated activation of TLR9 as described (Behrens, et al. (2011) J. Clin. Invest., 121(6):2264-77; Weaver, et al. (2016) Proc. Natl. Acad. Sci., 113(39):10944-9). Briefly, 8-week old mice were injected with five doses of PBS or 50 μg of CpG1826 intraperitoneally every other day for 9 days, while MMF (cat no: 4511, TOCRIS (Bristol, UK)) in DMSO was injected at 45 mg/Kg body weight based on standard dosing used in other murine studies (Cho, et al. (2015) J. Neuroinflammation 12:239; Yao, et al. (2016) Transl. Stroke Res., 7(6):535-47), every day once in the morning and once in the evening. The control group received DMSO instead of MMF. […] Spleens and livers were harvested and were formalin fixed followed by paraffin embedment for tissue sectioning and slide preparation for histology and immunohistochemistry (IHC). To obtain single suspension of spleen leukocytes, spleens at 37° C. were disrupted and incubated in the presence of DNAase and collagenase, followed by filtering over 70-μm strainers and RBC lysis. The cells were counted and then adhered for 2 hours on petri dishes to obtain plastic adherent macrophages.
Protein samples (10-12 μg) were resolved by SDS-PAGE on 4-12% Bis-Tris gels (Invitrogen), electrotransferred to nitrocellulose membranes (Cat no. 10484060, Bio-Rad (Hercules, CA)), and assessed for the immunosignal of proteins using the antibodies against HO-1 (cat no. ADI-SPA-896, Enzo (Farmingdale, NY)), Nrf2 (Cat no. 12721, Cell Signaling (Danvers, MA)), Erk (Cat no. 4695, Cell signaling), pErk (Cat no. 4379, Cell Signaling), Cyclophilin B (CyPB, Cat no. PA1-027A, ThermoFisher Scientific), β tubulin (Cat no. 2146, Cell Signaling), β actin (Cat No. 66009-1-Ig, Proteintech (Rosemont, IL)), Calnexin (Cat no. ab22595, abcam (Cambridge, UK) and Histone 3 (Cat no. 4499, Cell Signaling). Fluorescence tagged respective secondary antibodies obtained from Li-COR (Lincoln, Neb.)—Goat-anti-Rabbit-antibody (IRDye® 800CW), or Donkey-anti-mouse-antibody (IRDye® 800CW) or Donkey anti-Mouse IgG (IRDye® 680RD) were then used. […]

TLR9-MAS = TLR9-MAS in HMOX1^WT and HMOX1^fl/fl mice, MMF treatment; format: in vivo, mouse
Source text: C57BL/6 (WT) and LysM-Cre mice were purchased from The Jackson Laboratory (Bar Harbor, ME). HMOX1^fl/fl mice were crossbred with LysM-Cre mice and genotyped regularly to obtain mice with deletion of the HO-1 gene in myeloid lineage and are designated as: HMOX1^WT (intact HO-1), HMOX1^WT/fl (x LysM-cre, HO-1-haplodeficient,), and HMOX1^fl/fl (x LysM-Cre, complete HO-1-deficiency).
(§2) MAS was induced by repeated activation of TLR9 as described (Behrens, et al. (2011) J. Clin. Invest., 121(6):2264-77; Weaver, et al. (2016) Proc. Natl. Acad. Sci., 113(39):10944-9). Briefly, 8-week old mice were injected with five doses of PBS or 50 μg of CpG1826 intraperitoneally every other day for 9 days, while MMF (cat no: 4511, TOCRIS (Bristol, UK)) in DMSO was injected at 45 mg/Kg body weight based on standard dosing used in other murine studies (Cho, et al. (2015) J. Neuroinflammation 12:239; Yao, et al. (2016) Transl. Stroke Res., 7(6):535-47), every day once in the morning and once in the evening. The control group received DMSO instead of MMF. On day-10 mice were euthanized 24 hours after the last MMF injection, bled terminally to collect blood for complete blood count (CBC) and differential count, and serum for cytokine analysis by ELISA. Spleens and livers were harvested and were formalin fixed followed by paraffin embedment for tissue sectioning and slide preparation for histology and immunohistochemistry (IHC). To obtain single suspension of spleen leukocytes, spleens at 37° C. were disrupted and incubated in the presence of DNAase and collagenase, followed by filtering over 70-μm strainers and RBC lysis. The cells were counted and then adhered for 2 hours on petri dishes to obtain plastic adherent macrophages.
Slides from paraffin-embedded tissue sections were stained with hematoxylin and eosin or were immune-stained for HO-1 (cat no. ADI-SPA-896, Enzo), followed by nuclear stain using prolong gold antifade reagent with Dapi (P36931, Invitrogen (Carlsbad, CA)). Images were acquired on an Eclipse 90i microscope (Nikon (Melville, NY)) using NIS-ELEMENTS software.
as §1

TLR9-MAS murine model = TLR9-MAS murine model (repeated CpG), MMF treatment, C57BL/6 mice; format: in vivo, mouse
Method: as §2, with “macrophages. TLR9 activation induced cytokines from cells supernatants and serum were measured by using the ELISA kits from BD OptEIA™ (Cat nos. IL-12: 555256, IL-10: 555252, TNFα: 555268 and IL-6: 555240; Franklin Lakes, NJ).” for “macrophages.”

HO-1 [3] = assay: Splenic HO-1 expression in vivo after repeated CpG treatment (IHC, Western blot); parameters: species or system mouse; conditions: IFNγ alone, intraperitoneally, IFNγ-/- mice
Method: as §2, with “macrophages. […]” for “macrophages.”

[4] = spleen plastic adherent macrophages, MMF i.p. every 12 hours, 3 doses, 4 hours after last dose
[5] = day 10, MMF twice a day, CpG every other day

## [C-]#[O+] [CO, carbon monoxide]
[1]
  tolerability: tolerated

## [C-]#[O+].[C-]#[O+].[C-]#[O+].[C-]#[O+].[C-]#[O+].[C-]#[O+].[Cl][Ru][Cl].[Cl][Ru][Cl] [CORM2, carbon monoxide-releasing molecule [CORM] 2]
HO-1 [2]; CORM2 in BMDM not inhibited by ZnPP or genetically sufficient for HO-1
  IL-10: no additional effect
HO-1 [2]; CORM2 in HMOX1^fl/fl BMDMs
  IL-10: rescue
HO-1 [2]; CORM2 in ZnPP treated BMDMs, CpG 1 μg/ml
  IL-10 levels: restored IL-10 levels to normal

## COC(=O)/C=C/C(=O)O [MMF, monomethyl fumarate]
Nrf2/HO-1; MMF treatment
  HO-1 expression in splenic and peritoneal macrophages: increased
Nrf2/HO-1; [4]
  HO-1 immunosignal relative to DMSO control: significantly increased
  Nrf2 immunosignal relative to DMSO control: significantly increased
TLR9-MAS; CpG treated HMOX1^WT mice
  serum IL-10 elevation: 3 fold
TLR9-MAS; CpG treated HMOX1^fl/fl mice
  serum IL-10 elevation effect: completely lost
TLR9-MAS; CpG treated HMOX1 mice
  serum IFNγ: unaffected
TLR9-MAS; CpG treated HMOX1 mice, HO-1 independent
  serum IL-12: slightly reduced
TLR9-MAS; HMOX1^WT mice
  recovery from anemia (RBC): almost complete recovery
  recovery from thrombocytopenia (platelets): almost complete recovery
TLR9-MAS; HMOX1^fl/fl mice
  hepatosplenomegaly: partially protected
  recovery from anemia (RBC): partial recovery
  recovery from thrombocytopenia (platelets): partial recovery
TLR9-MAS; both WT and HMOX1^fl/fl mice
  lobular inflammatory score (liver): reduce
  portal inflammatory score (liver): reduce
TLR9-MAS; independent of mouse genotype
  histologic evidence of endothelial activation: reduce
TLR9-MAS murine model; MMF + CpG
  cellularity in spleen: reduced cellularity
  organomegaly of liver: reduced
  organomegaly of spleen: reduced
TLR9-MAS murine model; day 10, MMF 45 mg/Kg twice a day, CpG every other day
  serum IL-10: significantly higher
TLR9-MAS murine model; day 10, MMF + CpG
  erythrocyte count in blood: corrected
  platelet count in blood: corrected
TLR9-MAS murine model; [5]
  serum IFNγ: drop
  serum IL-12: drop

## C=CC1=C(C)c2cc3[n-]c(cc4nc(cc5[n-]c(cc1n2)c(C)c5C=C)C(C)=C4CCC(=O)O)c(CCC(=O)O)c3C.[Zn+2] [ZnPP, zinc protoporphyrin]
HO-1 [2]; ZnPP 3 μM, BMDMs
  IL-6 in response to CpG: increased levels
  TNFα in response to CpG: increased levels
HO-1 [2]; ZnPP 3 μM, BMDMs stimulated with CpG
  production of IL-10: substantially reduced
HO-1 [2]; ZnPP, CpG-treated HMOX1^WT BMDM
  IL-10: blocked
HO-1 [2]; ZnPP, CpG-treated HMOX1^fl/fl BMDM
  residual IL-10: without showing any effect

B1: IFNγ: interferon gamma added back intraperitoneally to IFNγ-/- mice (protein, UniProt P01580 23-155, looked up)
Interferon gamma: HGTVIESLESLNNYFNSSGIDVEEKSLFLDIWRNWQKDGDMKILQSQIISFYLRLFEVLKDNQAISNNISVIESHLITTFFSNSKAKKDAFMSIAKFEVNNPQVQRQAFNELIRVVHQLLPESSLRKRKRSRC
HO-1 [3]
  HO-1 induction in spleen: did not induce HO-1
